According to ChEMBL document CHEMBL5465560, “Selectivity Literature for EUbOPEN Chemogenomic Library” (2024):

Experiments:
[1] = target: T1, Ephrin type-B receptor 4 (Homo sapiens) (UniProt P54760); assay: Selectivity interaction (Kinase screening (Nanosyn)) EUB0000604a EPHB4
T1 sequence (whole entry): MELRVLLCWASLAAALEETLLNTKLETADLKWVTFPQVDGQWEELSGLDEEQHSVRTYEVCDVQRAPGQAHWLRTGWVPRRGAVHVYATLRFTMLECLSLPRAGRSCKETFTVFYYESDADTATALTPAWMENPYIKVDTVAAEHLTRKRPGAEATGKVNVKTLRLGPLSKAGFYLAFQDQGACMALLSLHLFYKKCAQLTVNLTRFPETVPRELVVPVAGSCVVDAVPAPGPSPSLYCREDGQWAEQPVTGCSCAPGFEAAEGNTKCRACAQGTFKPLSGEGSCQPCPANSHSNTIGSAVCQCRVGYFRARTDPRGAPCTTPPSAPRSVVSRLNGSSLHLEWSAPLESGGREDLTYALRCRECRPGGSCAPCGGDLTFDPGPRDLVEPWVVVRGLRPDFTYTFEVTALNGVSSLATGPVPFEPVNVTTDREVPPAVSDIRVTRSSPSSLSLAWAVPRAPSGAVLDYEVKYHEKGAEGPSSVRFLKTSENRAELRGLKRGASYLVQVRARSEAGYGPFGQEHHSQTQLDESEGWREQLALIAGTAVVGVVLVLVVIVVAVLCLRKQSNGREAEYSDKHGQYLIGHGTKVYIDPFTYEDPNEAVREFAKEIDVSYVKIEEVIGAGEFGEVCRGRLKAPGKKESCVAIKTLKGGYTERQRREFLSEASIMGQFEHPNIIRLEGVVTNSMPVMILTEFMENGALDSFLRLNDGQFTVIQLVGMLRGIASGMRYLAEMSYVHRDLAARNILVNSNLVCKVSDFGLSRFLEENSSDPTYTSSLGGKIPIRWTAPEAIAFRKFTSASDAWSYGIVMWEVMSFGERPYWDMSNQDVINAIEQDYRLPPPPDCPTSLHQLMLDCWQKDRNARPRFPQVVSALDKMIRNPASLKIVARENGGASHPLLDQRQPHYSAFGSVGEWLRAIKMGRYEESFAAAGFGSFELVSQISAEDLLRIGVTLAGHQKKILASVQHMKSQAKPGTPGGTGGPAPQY

[2] = target: Ribosomal protein S6 kinase alpha-5 (Homo sapiens) (UniProt O75582); assay: Selectivity interaction (Ambit KINOMEscan and KiNATiv profiling in Jurkat cells) EUB0000090b RPS6KA5; assay type: cell-based; conditions: at 1 µM
Sequence of Ribosomal protein S6 kinase alpha-5 (Homo sapiens) (O75582 whole entry, looked up): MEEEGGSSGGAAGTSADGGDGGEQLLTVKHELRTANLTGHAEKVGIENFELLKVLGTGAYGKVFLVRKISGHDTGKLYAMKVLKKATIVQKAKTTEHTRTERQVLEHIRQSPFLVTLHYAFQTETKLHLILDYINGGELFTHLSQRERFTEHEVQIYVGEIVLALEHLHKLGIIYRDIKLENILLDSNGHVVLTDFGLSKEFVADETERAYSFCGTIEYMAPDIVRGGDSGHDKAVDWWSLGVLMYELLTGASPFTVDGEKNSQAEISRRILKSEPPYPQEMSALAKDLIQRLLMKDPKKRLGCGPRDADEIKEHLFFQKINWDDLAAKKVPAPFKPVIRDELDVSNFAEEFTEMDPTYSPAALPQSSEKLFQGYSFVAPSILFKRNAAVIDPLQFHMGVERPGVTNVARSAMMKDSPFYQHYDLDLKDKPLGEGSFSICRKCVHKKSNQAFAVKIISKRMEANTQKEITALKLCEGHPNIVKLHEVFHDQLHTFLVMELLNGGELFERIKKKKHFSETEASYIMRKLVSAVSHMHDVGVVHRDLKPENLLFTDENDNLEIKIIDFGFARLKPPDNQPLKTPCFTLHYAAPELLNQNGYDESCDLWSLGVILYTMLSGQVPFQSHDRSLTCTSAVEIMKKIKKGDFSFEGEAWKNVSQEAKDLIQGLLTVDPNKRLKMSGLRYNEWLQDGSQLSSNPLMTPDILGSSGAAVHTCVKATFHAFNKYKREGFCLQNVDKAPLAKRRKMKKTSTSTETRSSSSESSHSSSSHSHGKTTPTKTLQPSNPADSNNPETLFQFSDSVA

[3] = target: Tyrosine-protein kinase JAK2 (Homo sapiens, UniProt O60674); assay: Selectivity interaction (KinomeScan (DiscoverX)) EUB0000655a JAK2; conditions: at 10 µM
Sequence of Tyrosine-protein kinase JAK2 (O60674 whole entry): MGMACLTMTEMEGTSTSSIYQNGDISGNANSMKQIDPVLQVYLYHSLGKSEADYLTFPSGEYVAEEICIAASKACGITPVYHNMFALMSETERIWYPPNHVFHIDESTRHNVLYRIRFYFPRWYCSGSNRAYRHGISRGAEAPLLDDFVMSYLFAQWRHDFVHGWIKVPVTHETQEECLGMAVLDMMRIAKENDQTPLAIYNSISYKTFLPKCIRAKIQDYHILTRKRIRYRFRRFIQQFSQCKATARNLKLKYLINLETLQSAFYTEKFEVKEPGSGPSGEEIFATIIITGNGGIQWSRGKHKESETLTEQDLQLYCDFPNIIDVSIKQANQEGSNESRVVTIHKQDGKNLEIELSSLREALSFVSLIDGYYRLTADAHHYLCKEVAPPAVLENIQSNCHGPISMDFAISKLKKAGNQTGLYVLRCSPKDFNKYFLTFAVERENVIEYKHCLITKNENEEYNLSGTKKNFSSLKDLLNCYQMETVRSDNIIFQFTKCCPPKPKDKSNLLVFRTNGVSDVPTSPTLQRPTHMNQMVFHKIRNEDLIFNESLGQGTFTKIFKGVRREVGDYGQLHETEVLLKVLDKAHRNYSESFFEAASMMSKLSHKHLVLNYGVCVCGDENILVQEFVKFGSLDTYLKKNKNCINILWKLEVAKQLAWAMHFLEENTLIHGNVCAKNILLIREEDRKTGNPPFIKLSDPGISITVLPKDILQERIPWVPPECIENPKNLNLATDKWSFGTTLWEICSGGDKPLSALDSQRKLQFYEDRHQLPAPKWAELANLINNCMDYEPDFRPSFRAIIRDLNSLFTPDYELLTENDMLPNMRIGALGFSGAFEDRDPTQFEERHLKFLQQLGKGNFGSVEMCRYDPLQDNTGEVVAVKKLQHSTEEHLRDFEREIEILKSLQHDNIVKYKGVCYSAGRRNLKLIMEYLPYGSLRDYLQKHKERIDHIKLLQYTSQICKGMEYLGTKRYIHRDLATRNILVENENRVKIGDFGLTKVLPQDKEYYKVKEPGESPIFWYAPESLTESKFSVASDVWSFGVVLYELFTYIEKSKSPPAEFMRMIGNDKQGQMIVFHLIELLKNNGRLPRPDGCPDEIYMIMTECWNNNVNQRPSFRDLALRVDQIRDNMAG

[4] = target: T2, Myosin-IIIb (Homo sapiens) (UniProt Q8WXR4); assay: Selectivity interaction (KinomeScan (DiscoverX)) EUB0000092b MYO3B; conditions: at 10 µM
T2 sequence (whole entry): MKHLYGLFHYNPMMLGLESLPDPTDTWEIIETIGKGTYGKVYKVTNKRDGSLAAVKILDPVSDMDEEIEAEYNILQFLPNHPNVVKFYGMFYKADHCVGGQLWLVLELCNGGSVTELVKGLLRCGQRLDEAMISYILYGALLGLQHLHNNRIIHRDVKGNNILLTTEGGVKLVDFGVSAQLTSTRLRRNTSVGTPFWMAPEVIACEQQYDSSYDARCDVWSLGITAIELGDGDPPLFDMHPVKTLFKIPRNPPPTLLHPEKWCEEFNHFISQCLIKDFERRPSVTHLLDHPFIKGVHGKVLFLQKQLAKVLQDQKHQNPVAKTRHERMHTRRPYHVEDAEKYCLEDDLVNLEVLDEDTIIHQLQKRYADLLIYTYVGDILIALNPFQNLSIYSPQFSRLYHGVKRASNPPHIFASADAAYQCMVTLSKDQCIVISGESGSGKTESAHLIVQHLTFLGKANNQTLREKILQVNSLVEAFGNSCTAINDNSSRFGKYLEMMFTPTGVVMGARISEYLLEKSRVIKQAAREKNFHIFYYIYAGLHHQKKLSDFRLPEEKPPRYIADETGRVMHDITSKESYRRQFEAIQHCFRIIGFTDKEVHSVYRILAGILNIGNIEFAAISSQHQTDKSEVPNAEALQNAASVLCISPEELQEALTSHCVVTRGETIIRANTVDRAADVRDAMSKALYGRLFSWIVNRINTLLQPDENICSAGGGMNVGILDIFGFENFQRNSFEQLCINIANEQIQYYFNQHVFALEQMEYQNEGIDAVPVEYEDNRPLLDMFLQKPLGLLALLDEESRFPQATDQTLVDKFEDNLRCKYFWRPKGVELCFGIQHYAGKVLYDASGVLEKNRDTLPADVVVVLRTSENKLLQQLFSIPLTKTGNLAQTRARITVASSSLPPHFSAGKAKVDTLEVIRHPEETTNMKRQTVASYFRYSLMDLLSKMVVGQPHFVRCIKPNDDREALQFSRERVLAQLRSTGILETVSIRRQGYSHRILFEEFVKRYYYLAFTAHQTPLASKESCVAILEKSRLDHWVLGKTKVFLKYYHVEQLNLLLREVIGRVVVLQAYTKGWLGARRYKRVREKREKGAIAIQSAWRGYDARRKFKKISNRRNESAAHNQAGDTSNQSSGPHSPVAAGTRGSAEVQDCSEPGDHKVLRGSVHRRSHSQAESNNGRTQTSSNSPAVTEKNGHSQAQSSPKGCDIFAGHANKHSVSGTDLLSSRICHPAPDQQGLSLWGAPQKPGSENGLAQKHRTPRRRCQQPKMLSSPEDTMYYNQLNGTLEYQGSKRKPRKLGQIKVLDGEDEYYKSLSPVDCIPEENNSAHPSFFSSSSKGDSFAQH

`Cc1cnc(Nc2ccc(F)cc2Cl)nc1-c1c[nH]c(C(=O)N[C@H](CO)c2cccc(Cl)c2)c1` gave a % of inhibition [1] of 0%.

`CN(C)C/C=C/C(=O)Nc1ccc(C(=O)N2CCCC(Nc3ncc(Cl)c(-c4c[nH]c5ccccc45)n3)C2)cc1` (centres undefined) was tested, and the % of control [2] was 86%.

In the case of `CN(C)CCOc1ccc(-c2nc(-c3ccncc3)c(-c3ccc4c(c3)CC/C4=N\O)[nH]2)cc1`, the % of control [3] was 70%.

For `CCC(=O)N1CCN(c2ccc(-n3c(=O)ccc4cnc5ccc(-c6cnc7ccccc7c6)cc5c43)cc2C(F)(F)F)CC1`, the % of control [4] was 100%.
